These results are taken from publication PMC5198511 (Molecular Pharmacology, 2017).

One data set is described as follows: LogD7.4 measurement. It counts as physicochemical. The settings on record: 1-octanol/phosphate buffer, pH 7.4.
A short description of data set [1]: Immobilized artificial membrane chromatography. Conditions: IAM chromatography, pH 7.4. It counts as physicochemical.

On to `CCNC(=O)[C@H]1O[C@@H](n2cnc3c(N)nc(NCCc4ccc(CCC(=O)O)cc4)nc32)[C@H](O)[C@@H]1O` [Compound 3ac], for which the logD in “LogD7.4 measurement” is below -0.8. For the same compound, the “log KIAM” value in data set [1] is given as −0.09.
